Read-outs that look alike come from different tables or passages of the source.

What all share (experiment): Post-emergence action against weeds, greenhouse pot test, visual scoring
What all share (format): in vivo

Assay [1] concerns Cyperus esculentus (CYPES). The following applies: Cyperus esculentus, post-emergence, 504 h; CYPES; 21 DAT; 7 g of ai/ha alone; read-out: % activity found. As to the method:
(§1) Seeds or rhizome pieces of mono- and dicotyledonous harmful and useful plants were placed in peat pots (diameter 4 cm) filled with sandy loam and then covered with soil. The pots were kept in a greenhouse under optimum conditions. In addition, harmful plants encountered in paddy rice cultivation were cultivated in pots with a water level 2 cm above the soil surface.
(§2) About three weeks after the start of the cultivation, the test plants were treated at the 2- to 3-leaf stage. The herbicides, formulated as powder or liquid concentrates, were, either alone or in the combinations according to the invention, sprayed in various dosages on to the green parts of the plants using an application rate of 600 l of water/ha (converted). For further cultivation of the plants, the pots were then again kept under optimum conditions in a greenhouse.
(§3) The visual scoring of the herbicidal effects was carried out in intervals up to 21 days after the treatment. Scoring was carried out in percent in comparison to the untreated control plants. 0%=no herbicidal activity, 100%=complete herbicidal activity=complete kill.
(§4) The percentages from the treatments with the herbicides alone (=individual application) and with the combinations according to the invention (=mixtures) were employed to calculate interactions using the method of Colby.
(§5) • A, B=activity of components A and B in percent at a dosage of a and b g of ai/ha (=gramm of active substance per hectare), respectively. • E=expected value in % at a dosage of a+b g of ai/ha.

The next assay concerns Viola tricolor (VIOTR). The following applies: for (7) activity found: rate (6) B7-4 40. As to the method:
as §1, §2, §3, §4, §5

The next assay concerns Zea mays (ZEAMX). The protocol: as §1, §2, §3, §4, §5
In another assay the test system is Avena fatua (AVEFA). As to the method:
as §1, §2, §3, §4, §5

The subject of assay [2] is Lolium multiflorum (LOLMU). The following applies: for (7) activity found: 10 DAT. As to the method: as §1, §2, §3, §4, §5
In another assay the test system is Oryza sativa (ORYSA). The following applies: read-out: % activity found; for inhibition at 7 g/ha: ORYSA, 7 g of ai/ha alone. The protocol: as §1, §2, §3
(§6) The percentages from the treatments with the herbicides alone (=individual application) and with the combinations according to the invention (=mixtures) were employed to calculate interactions using the method of Colby. When the observed efficacies of the mixtures exceed the formal sum of the values of the tests with individual applications, they also exceed the expected value according to Colby, which is calculated using the formula below (cf. S. R. Colby; in Weeds 15 (1967) pp. 20 to 22):
as §5

In assay [3] the test system is Matricaria inodora (MATIN). The following applies: for (7) activity found: MATIN, 21 DAT. The protocol:
as §1, §2, §3, §4, §5

Assay [4] has as its system Fallopia (ex Polygonum) convolvulus (POLCO). The following applies: for (7) activity found: POLCO, 21 DAT. As to the method: as §1, §2, §3, §4, §5
For a further assay, the system named is Setaria viridis (SETVI). The following applies: 504 h, read-out: % activity found. As to the method: as §1, §2, §3, §6, §5
For assay [5], the system named is Alopecurus myosuroides (ALOMY). The following applies: read-out: % activity found. The protocol:
as §1, §2, §3, §6, §5

A further assay concerns Veronica persica (VERPE). The following applies: 21 DAT. As to the method: as §1, §2, §3, §4, §5
Another assay relates to Stellaria media (STEME). The following applies: 10 DAT. The protocol:
as §1, §2, §3, §4, §5

Assay [6] has as its system Pharbitis purpurea (PHBPU). The following applies: 21 DAT. The protocol:
as §1, §2, §3, §4, §5

For assay [7], the system named is Abuthilon theophrasti (ABUTH). The following applies: 21 DAT, rate (6) B7-4 120. The protocol:
as §1, §2, §3, §4, §5

Assay [8] has as its system Triticum aestivum (TRZAS). The protocol: as §1, §2, §3, §4, §5
Where [9] appears, read: Tripleurospermum inodorum, post-emergence, 504 h, read-out: % activity found.
Where [10] appears, read: Lolium multiflorum, post-emergence, 240 h, read-out: % activity found.
Setting [11] is: Fallopia convolvulus, post-emergence, 504 h, read-out: % activity found.

With `COCc1cnc(C2=NC(C)(C(C)C)C(=O)N2)c(C(=O)O)c1` (racemic) [B4-2, (±)-2-[4,5-dihydro-4-methyl-4-(1-methylethyl)-5-oxo-1H-imidazol-2-yl]-5-(methoxymethyl)-3-pyridinecarboxylic acid], the inhibition at 7 g/ha in assay [1] amounted to 0%; in the assay with Viola tricolor (VIOTR) (Viola tricolor, post-emergence, 504 h, 21 DAT, 7 g of ai/ha alone, read-out: % activity found), 20%; with Zea mays (ZEAMX) (Zea mays, post-emergence, 504 h, ZEAMX, 21 DAT, 7 g of ai/ha alone, read-out: % activity found), 10%; in assay [2] (Lolium multiflorum, post-emergence, 504 h, LOLMU, 21 DAT, 7 g of ai/ha alone, read-out: % activity found), 80%; with Oryza sativa (ORYSA) (240 h, 10 DAT) it was 70%; in the assay with Oryza sativa (ORYSA) (504 h, 21 DAT) it was 70%. Moreover, the inhibition at 21 g/ha stood at 40% in the assay on Viola tricolor (VIOTR) (Viola tricolor, post-emergence, 504 h, 21 DAT, 21 g of ai/ha alone, read-out: % activity found); 60% in the assay with Zea mays (ZEAMX) (Zea mays, post-emergence, 504 h, ZEAMX, 21 DAT, 21 g of ai/ha alone, read-out: % activity found); 70% with Avena fatua (AVEFA) (Avena fatua, post-emergence, 504 h, AVEFA, 21 DAT, 21 g of ai/ha alone, read-out: % activity found).

Take `Cc1nn(C)c(O)c1C(=O)c1ccc(C(F)(F)F)cc1S(C)(=O)=O` [B1-6, (5-hydroxy-1,3-dimethyl-1H-pyrazol-4-yl)[2-(methylsulfonyl)-4-(trifluoromethyl)phenyl]methanone]: the inhibition at 8 g/ha in assay [3] (setting [9]) is 20%; with Avena fatua (AVEFA) (Avena fatua, post-emergence, 240 h, read-out: % activity found) it was 0%; with Avena fatua (AVEFA) (Avena fatua, post-emergence, 504 h, read-out: % activity found), 0%; in [2] (setting [10]), 0%; in assay [2] (Lolium multiflorum, post-emergence, 504 h, read-out: % activity found), 0%; in [4] (setting [11]), 50%. Moreover, the inhibition at 8 g/ha is 50% in the assay with Oryza sativa (ORYSA) (240 h); 40% in the assay on Oryza sativa (ORYSA) (504 h); 0% with Setaria viridis (SETVI); 0% in [5] (240 h); 0% in assay [5] (504 h). For the same compound, the inhibition at 24 g/ha in assay [3] (setting [9]) was found to be 30%; in the assay with Zea mays (ZEAMX) (Zea mays, post-emergence, 240 h, read-out: % activity found), 0%; in the assay with Zea mays (ZEAMX) (Zea mays, post-emergence, 504 h, read-out: % activity found) it was 0%; in [2] (setting [10]) it was 0%; in [4] (setting [11]), 60%; with Oryza sativa (ORYSA) (504 h), 70%. Further, the inhibition at 24 g/ha (in the assay on Setaria viridis (SETVI); in [5] (240 h); in [5] (504 h)) was 0% in each case.

For the compound `CCN(CC)C(=O)n1cnc(S(=O)(=O)c2c(C)cc(C)cc2C)n1` [B7-4, N,N-diethyl-3-[(2,4,6-trimethylphenyl)sulfonyl]-1H-1,2,4-triazole-1-carboxamide], the “(7) activity found” value came out at 0% in the assay with Veronica persica (VERPE) (rate (6) B7-4 40); 0% with Veronica persica (VERPE) (rate (6) B7-4 120); 0% in assay [3] (rate (6) B7-4 40); 0% in assay [3] (rate (6) B7-4 120); 10% with Stellaria media (STEME) (rate (6) B7-4 40); 10% in the assay on Stellaria media (STEME) (rate (6) B7-4 120). Further, the “(7) activity found” value in the assay on Viola tricolor (VIOTR) (10 DAT) is on record as 0%; in the assay on Viola tricolor (VIOTR) (21 DAT) it was 0%; in assay [6] (rate (6) B7-4 40), 20%; in assay [6] (rate (6) B7-4 120), 20%; with Zea mays (ZEAMX) (ZEAMX, 10 DAT, rate (6) B7-4 40), 10%; in the assay with Zea mays (ZEAMX) (ZEAMX, 21 DAT, rate (6) B7-4 40), 0%. The “(7) activity found” value in the assay on Zea mays (ZEAMX) (ZEAMX, 21 DAT, rate (6) B7-4 120) came to 0%; in assay [7], 20%; in assay [8] (10 DAT, rate (6) B7-4 40), 0%; in assay [8] (21 DAT, rate (6) B7-4 40) it was 0%; in assay [8] (21 DAT, rate (6) B7-4 120), 0%; in the assay on Avena fatua (AVEFA) (AVEFA, 21 DAT, rate (6) B7-4 40 (Table 78)), 0%. Moreover, the “(7) activity found” value with Avena fatua (AVEFA) (AVEFA, 21 DAT, rate (6) B7-4 40 (Table 79)) is on record as 0%; with Avena fatua (AVEFA) (AVEFA, 21 DAT, rate (6) B7-4 120), 30%; in [2] (LOLMU, rate (6) B7-4 40), 0%; in assay [2] (LOLMU, rate (6) B7-4 120), 40%; in assay [4] (rate (6) B7-4 40 (Table 82)), 30%; in assay [4] (rate (6) B7-4 40 (Table 83)) it was 30%. In [4] (rate (6) B7-4 120), the “(7) activity found” value was found to be 50%.

The values above are taken from US20100075852A1, “HERBICIDE COMBINATION COMPRISING DIMETHOXYTRIAZINYL-SUBSTITUTED DIFLUOROMETHANESULFONYLANILIDES” (BAYER CROPSCIENCE AG, priority 2008, published 2010).
